The text below walks through data of patent US11020399B2, “Intermediates useful in the synthesis of compounds as modulators of protein kinases” (Rhizen Pharmaceuticals SA, priority 2011, dated 2021).

Structures are written as SMILES.

What all share (format): biochemical
Assay [1] addresses PI3kα (Homo sapiens, UniProt P42336). Nature of the assay: Fluorescent (HTRF) determination of PI3 kinase enzyme activity, PI3Kα. An excerpt:
(§1) Assay 1: Fluorescent Determination of PI3Kinase Kinase Enzyme Activity
(§2) Phosphoinositide 3 kinases (PI3K) belong to a class of lipid kinases that play a critical role in the regulation of several key cellular processes. The PI3K are capable of phosphorylating the 3-hydroxy position of phosphoinositols thereby generating second messengers involved in downstream signalling events. The homogenous time resolved fluorescence (HTRF) assay allows detection of 3,4,5-triphosphate (PIP3) formed as a result of phosphorylation of phosphotidylinositol 4,5-biphosphate (PIP2) by PI3K isoforms such as α, β, γ or δ. PI3K isoform activity for a, p, y or 8 was determined using a PI3K human HTRF™ Assay Kit (Millipore, Billerica, Mass.) with modifications. All incubations were carried out at room temperature. Briefly, 0.5 μl of 40× inhibitor (in 100% DMSO) or 100% DMSO were added to each well of a 384-well black plate (Greiner Bio-One, Monroe, N.C.) containing 14.5 μl IX reaction buffer /PIP2 (10 mM MgCl2, 5 mM DTT, 1.38 μM PIP2) mix with or without enzyme and incubated for 10 min. After the initial incubation, 5 μl/well of 400 μM ATP was added and incubated for an additional 30 minutes. Reaction was terminated by adding 5 μl/well stop solution (Millipore, Billerica, Mass.). Five microliters of detection mix (Millipore, Billerica, Mass.) were then added to each well and was incubated for 6-18 h in the dark. HRTF ratio was measured on a microplate reader (BMG Labtech., Germany) at an excitation wavelength of 337 nm and emission wavelengths of 665 and 620 nm with an integration time of 400 μsec.
(§3) Data were analyzed using Graphpad Prism (Graphpad software; San Diego Calif.) for IC50 determination. Examples 1-59 were tested at 1 uM for Pi3kα & Pi3k β and at 0.3 uM for γ and δ. Examples 60-137 were tested at 1 uM for Pi3kα & Pi3k β and at 0.1 uM for γ and δ. Percent inhibition was calculated based on the values for the blank and enzyme controls. The results are as provided in Table 2 (wherein D=0 to 25%; C=>25 to 50%; B=>50 to 75%; A=>75 to 100%; +++++=≤50 nM; ++++=>50 to ≤100 nM; +++=>100 to ≤300 nM; ++=>300 to ≤500 nM; +=>500 nM)
(In general: In TR-FRET formats the signal depends on donor and acceptor labels being close together.)

Assay [2] has as its target PI3kδ (Homo sapiens, UniProt O00329). The assay can be described thus: Fluorescent (HTRF) determination of PI3 kinase enzyme activity, PI3Kδ. The settings on record: for inhibition at 0.1 µM: 100 nM (Examples 60-137); for inhibition at 0.3 µM: 300 nM (Examples 1-59).
From the text: as §1, §2, §3

Assay [3] deals with PI3kβ (Homo sapiens, UniProt P42338). The assay can be described thus: Fluorescent (HTRF) determination of PI3 kinase enzyme activity, PI3Kβ.
PI3kβ, sequence (P42338 whole entry): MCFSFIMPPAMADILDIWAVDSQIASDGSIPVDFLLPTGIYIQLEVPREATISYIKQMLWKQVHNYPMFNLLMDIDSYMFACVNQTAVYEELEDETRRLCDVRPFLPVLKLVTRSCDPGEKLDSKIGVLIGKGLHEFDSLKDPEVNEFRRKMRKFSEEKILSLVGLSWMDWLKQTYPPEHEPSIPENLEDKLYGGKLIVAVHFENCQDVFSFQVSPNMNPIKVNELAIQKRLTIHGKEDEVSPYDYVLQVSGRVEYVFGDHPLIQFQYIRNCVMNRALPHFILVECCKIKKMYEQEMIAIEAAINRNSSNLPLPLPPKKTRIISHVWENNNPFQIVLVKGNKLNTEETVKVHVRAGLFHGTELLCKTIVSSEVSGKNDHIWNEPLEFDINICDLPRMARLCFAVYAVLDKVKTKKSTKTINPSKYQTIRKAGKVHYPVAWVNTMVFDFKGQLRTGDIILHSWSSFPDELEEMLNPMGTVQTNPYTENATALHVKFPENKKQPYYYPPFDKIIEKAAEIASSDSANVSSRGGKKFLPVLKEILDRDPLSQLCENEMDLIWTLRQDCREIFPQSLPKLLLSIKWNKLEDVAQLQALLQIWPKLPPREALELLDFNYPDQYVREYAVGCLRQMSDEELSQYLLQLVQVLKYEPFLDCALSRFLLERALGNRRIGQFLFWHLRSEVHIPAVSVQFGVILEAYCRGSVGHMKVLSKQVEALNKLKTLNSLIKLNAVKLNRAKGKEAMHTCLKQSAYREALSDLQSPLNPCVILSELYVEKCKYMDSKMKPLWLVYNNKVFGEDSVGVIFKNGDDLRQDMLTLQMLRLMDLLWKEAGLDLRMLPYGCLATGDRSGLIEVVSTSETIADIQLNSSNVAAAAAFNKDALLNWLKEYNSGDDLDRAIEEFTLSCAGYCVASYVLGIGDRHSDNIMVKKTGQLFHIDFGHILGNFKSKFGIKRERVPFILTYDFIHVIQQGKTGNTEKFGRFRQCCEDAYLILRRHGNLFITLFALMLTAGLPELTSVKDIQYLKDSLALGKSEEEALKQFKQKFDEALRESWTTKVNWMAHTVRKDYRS
PI3kβ, sequence (P27986 whole entry partner): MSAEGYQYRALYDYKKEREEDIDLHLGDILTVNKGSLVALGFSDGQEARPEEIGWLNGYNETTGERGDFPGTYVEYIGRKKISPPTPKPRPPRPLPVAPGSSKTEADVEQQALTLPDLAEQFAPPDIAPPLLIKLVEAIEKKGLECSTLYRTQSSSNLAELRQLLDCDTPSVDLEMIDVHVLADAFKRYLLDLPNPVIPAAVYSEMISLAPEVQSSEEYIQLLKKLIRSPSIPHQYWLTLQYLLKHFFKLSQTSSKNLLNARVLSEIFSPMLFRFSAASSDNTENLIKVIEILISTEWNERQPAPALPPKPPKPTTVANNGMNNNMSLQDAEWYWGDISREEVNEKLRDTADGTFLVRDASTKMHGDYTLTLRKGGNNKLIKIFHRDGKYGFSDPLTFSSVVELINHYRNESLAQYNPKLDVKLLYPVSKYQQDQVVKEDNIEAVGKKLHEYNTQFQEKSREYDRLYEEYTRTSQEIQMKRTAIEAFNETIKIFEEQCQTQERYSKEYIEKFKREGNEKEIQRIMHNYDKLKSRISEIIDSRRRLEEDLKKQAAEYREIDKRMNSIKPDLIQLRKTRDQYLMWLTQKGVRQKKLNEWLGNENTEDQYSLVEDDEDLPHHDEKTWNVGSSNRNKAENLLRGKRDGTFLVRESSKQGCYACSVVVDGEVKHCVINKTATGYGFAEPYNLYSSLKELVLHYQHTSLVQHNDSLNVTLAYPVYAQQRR
From the text: as §1, §2, §3

In assay [4] the target is PI3kγ (Homo sapiens, UniProt P48736). Nature of the assay: Fluorescent (HTRF) determination of PI3 kinase enzyme activity, PI3Kγ. The settings on record: for inhibition at 0.1 µM: 100 nM (Examples 60-137); for inhibition at 0.3 µM: 300 nM (Examples 1-59).
PI3kγ, sequence (P48736 whole entry): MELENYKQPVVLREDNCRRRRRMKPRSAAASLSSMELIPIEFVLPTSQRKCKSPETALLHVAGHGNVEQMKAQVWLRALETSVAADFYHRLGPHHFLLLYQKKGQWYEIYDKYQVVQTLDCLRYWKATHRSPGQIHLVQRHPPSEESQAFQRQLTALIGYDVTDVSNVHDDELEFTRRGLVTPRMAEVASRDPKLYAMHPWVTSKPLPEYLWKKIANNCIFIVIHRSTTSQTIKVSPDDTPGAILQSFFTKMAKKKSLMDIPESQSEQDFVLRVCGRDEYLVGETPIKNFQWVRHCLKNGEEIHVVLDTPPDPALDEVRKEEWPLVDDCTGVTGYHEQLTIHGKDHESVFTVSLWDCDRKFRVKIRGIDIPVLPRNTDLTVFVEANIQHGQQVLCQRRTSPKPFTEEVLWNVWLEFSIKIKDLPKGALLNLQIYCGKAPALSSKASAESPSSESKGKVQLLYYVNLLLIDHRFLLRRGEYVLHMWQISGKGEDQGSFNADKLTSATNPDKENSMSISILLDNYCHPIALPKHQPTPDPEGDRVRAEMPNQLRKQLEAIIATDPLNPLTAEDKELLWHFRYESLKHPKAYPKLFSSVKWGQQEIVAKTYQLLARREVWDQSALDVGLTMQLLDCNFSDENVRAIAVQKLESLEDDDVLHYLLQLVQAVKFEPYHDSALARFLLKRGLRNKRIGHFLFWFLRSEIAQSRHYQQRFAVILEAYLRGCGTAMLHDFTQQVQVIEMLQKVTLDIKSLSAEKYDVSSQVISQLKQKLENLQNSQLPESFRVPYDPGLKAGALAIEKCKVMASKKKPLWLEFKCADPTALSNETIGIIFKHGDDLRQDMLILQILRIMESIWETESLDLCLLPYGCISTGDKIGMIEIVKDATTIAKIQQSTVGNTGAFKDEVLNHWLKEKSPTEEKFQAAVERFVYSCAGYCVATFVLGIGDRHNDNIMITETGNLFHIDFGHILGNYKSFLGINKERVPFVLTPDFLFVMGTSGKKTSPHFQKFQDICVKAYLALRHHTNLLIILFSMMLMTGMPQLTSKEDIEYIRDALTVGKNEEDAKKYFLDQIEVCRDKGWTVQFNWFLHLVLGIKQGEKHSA
From the text: as §1, §2, §3

PI3kα, sequence (P42336 whole entry): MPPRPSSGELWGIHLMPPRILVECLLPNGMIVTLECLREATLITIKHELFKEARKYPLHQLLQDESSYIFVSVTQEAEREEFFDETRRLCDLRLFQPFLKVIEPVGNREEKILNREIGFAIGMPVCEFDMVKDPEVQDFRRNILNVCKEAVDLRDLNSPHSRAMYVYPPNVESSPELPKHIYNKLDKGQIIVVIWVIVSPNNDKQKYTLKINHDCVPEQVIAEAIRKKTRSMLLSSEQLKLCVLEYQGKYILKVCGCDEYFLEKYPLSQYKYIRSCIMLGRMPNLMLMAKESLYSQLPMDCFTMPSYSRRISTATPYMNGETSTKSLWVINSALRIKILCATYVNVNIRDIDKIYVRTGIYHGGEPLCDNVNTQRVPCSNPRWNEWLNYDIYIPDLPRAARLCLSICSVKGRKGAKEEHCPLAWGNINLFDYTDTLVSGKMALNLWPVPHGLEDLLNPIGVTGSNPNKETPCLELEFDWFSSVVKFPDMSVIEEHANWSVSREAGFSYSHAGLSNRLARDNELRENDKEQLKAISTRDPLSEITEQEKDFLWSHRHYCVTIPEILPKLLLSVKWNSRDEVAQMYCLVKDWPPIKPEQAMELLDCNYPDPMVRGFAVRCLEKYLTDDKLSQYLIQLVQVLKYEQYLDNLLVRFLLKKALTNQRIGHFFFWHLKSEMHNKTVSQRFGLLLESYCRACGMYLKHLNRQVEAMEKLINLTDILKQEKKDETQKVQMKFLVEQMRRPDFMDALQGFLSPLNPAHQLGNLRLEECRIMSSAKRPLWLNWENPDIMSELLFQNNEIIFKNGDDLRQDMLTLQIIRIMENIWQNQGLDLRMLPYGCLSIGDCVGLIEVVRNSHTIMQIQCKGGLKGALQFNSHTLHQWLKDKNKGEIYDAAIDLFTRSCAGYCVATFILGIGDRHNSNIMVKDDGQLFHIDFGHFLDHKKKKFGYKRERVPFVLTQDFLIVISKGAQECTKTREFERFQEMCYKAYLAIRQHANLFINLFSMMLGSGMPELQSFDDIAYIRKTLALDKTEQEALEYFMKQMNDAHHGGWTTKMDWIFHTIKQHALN
PI3kα, sequence (P27986 whole entry partner): as the sequence (P27986 whole entry partner) above
PI3kδ, sequence (O00329 whole entry): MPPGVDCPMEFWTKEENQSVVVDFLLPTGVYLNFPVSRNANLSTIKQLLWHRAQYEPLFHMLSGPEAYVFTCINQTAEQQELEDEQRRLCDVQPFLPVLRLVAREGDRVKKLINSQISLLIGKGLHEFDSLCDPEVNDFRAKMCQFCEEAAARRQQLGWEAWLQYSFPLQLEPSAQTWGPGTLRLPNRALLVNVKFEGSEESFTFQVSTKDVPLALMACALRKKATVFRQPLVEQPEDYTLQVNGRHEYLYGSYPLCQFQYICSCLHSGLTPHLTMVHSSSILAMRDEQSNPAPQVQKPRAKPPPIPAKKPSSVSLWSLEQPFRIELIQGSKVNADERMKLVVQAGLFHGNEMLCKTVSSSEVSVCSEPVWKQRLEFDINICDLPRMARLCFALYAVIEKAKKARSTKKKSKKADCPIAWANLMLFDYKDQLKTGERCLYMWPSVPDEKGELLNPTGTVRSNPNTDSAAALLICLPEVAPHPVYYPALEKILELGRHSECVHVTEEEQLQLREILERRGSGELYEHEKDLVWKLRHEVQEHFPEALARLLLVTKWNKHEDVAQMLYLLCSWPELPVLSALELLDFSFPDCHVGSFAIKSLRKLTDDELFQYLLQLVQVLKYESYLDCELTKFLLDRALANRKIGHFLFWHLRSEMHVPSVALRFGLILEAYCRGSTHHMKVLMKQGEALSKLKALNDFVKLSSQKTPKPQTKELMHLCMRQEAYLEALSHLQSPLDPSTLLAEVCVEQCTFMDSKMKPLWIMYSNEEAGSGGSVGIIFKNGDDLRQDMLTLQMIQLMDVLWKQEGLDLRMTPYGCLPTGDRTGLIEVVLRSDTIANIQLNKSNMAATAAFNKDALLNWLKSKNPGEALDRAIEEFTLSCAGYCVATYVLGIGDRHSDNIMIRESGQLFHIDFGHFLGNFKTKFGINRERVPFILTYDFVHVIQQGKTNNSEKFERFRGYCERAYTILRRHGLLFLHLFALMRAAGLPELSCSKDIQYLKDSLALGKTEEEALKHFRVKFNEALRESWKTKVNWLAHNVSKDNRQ
PI3kδ, sequence (P27986 whole entry partner): as the sequence (P27986 whole entry partner) above

`CC(C)Oc1ccc(-c2nn(C(C)c3oc4cccc(F)c4c(=O)c3-c3ccc(F)cc3)c3ncnc(N)c23)cc1F` (racemic) [Example 94, (S)/(R)-2-(1-(4-amino-3-(3-fluoro-4-isopropoxyphenyl)-1H-pyrazolo[3,4-d]pyrimidin-1-yl)ethyl)-5-fluoro-3-(4-fluorophenyl)-4H-chromen-4-one]: in assay [1], the “% inhibition (PI3kα) 1 uM” value was “C (C=>25 to 50%)”. Moreover, the inhibition at 0.1 µM in assay [2] and in assay [4] was 25 to 50% in each case. The compound further yielded an inhibition at 1 µM in assay [3] (1 uM) of 25 to 50%.

As for `CC(C)Oc1ccc(-c2nn(C(C)c3oc4cccc(F)c4c(=O)c3-c3ccccc3)c3ncnc(N)c23)cc1F` (racemic) [Example 100, (S)/(R)-2-(1-(4-amino-3-(3-fluoro-4-isopropoxyphenyl)-1H-pyrazolo[3,4-d]pyrimidin-1-yl)ethyl)-5-fluoro-3-phenyl-4H-chromen-4-one], the “% inhibition (PI3kα) 1 uM” value in assay [1] is “B (B=>50 to 75%)”. In assay [2], the IC50 is 100 to 300 nM and the inhibition at 0.1 µM lay within 25 to 50%. The “% inhibition (PI3kβ) 1 uM” value in assay [3] (1 uM) is “B (B=>50 to 75%)”. Also, in assay [4], the IC50 lay in the range of 50 to 100 nM and the inhibition at 0.1 µM fell in the range of 50 to 75%.

`COc1cccc2oc(Cn3cnc4c(N)ncnc43)c(-c3cccc(F)c3)c(=O)c12` [Example 1]: the inhibition at 1 µM in assay [1] and in assay [3] (1 uM) was 25 to 50% each time. In assay [2], this compound displayed an inhibition at 0.3 µM of 50 to 75%.

Regarding `COc1cccc2oc(Cn3nc(-c4ccc(OC(C)C)c(F)c4)c4c(N)ncnc43)c(-c3cccc(F)c3)c(=O)c12` [Example 2, 2-((4-Amino-3-(3-fluoro-4-isopropoxyphenyl)-1H-pyrazolo[3,4-d]pyrimidin-1-yl)methyl)-3-(3-fluorophenyl)-5-methoxy-4H-chromen-4-one], the inhibition at 1 µM in assay [1] and in assay [3] (1 uM) was 0 to 25% in each case. The compound also had an inhibition at 0.3 µM in assay [2] of 50 to 75%.

With `Nc1ncnc2c1c(-c1cc(O)cc(F)c1)nn2Cc1oc2cccc(F)c2c(=O)c1-c1cccc(F)c1` [Example 5, 2-((4-amino-3-(3-fluoro-5-hydroxyphenyl)-1H-pyrazolo[3,4-d]pyrimidin-1-yl)methyl)-5-fluoro-3-(3-fluorophenyl)-4H-chromen-4-one], the inhibition at 1 µM in assay [1] lay in the range of 25 to 50%; in assay [3] (1 uM) it was 0 to 25%. Also, the IC50 in assay [1] (numeric values) is greater than 10000 nM; in assay [3], 300 to 500 nM. Besides, the inhibition at 0.3 µM in assay [2] was 50 to 75%.

With `CC(c1oc2cccc(F)c2c(=O)c1-c1cccc(F)c1)n1nc(-c2ccc(N(C)C)c(F)c2)c2c(N)ncnc21` (centres unmarked) [Example 24, 2-(1-(4-amino-3-(4-(dimethylamino)-3-fluorophenyl)-1H-pyrazolo[3,4-d]pyrimidin-1-yl)ethyl)-5-fluoro-3-(3-fluorophenyl)-4H-chromen-4-one], the inhibition at 1 µM in assay [1] lay within 0 to 25%; in assay [3] (1 uM), 50 to 75%. In assay [4], this compound came in with an inhibition at 0.3 µM of 25 to 50%.

In assay [1], `CC(c1oc2cccc(F)c2c(=O)c1-c1cccc(F)c1)n1nc(-c2ccc(N3CCOCC3)c(F)c2)c2c(N)ncnc21` (centres unmarked) [Example 25, 2-(1-(4-amino-3-(3-fluoro-4-morpholinophenyl)-1H-pyrazolo[3,4-d]pyrimidin-1-yl)ethyl)-5-fluoro-3-(3-fluorophenyl)-4H-chromen-4-one] displayed an inhibition at 1 µM of 0 to 25%. The inhibition at 1 µM in assay [3] (1 uM) lay in the range of 25 to 50%. Also, in assay [4], the IC50 was no more than 50 nM and the inhibition at 0.3 µM is 75 to 100%.

Regarding `Cc1nc2cc(-c3nn(C(C)c4oc5cccc(F)c5c(=O)c4-c4cccc(F)c4)c4ncnc(N)c34)ccc2[nH]1` (centres unmarked) [Example 26, 2-(1-(4-amino-3-(2-methyl-1H-benzo[d]imidazol-5-yl)-1H-pyrazolo[3,4-d]pyrimidin-1-yl)ethyl)-5-fluoro-3-(3-fluorophenyl)-4H-chromen-4-one], in assay [1], the inhibition at 1 µM fell in the range of 0 to 25%. In assay [3] (1 uM), the inhibition at 1 µM fell in the range of 25 to 50%. Also, in assay [4], the IC50 was 50 to 100 nM and the inhibition at 0.3 µM fell in the range of 75 to 100%.

As usually defined, the inhibition is the drop in the measured response relative to a control, in per cent. Higher therefore signals a strong effect. One may read the IC50 as the point on the concentration scale where inhibition reaches its midpoint. A high value points to weaker potency.
